17 compounds from ChEMBL document CHEMBL3580565, “Synthesis and Biological Evaluation of Cyclopentaquinoline Derivatives as Nonsteroidal Glucocorticoid Receptor Antagonists” (J Med Chem, 2015) can be followed below.

For experiment [1], the target named is T1, Glucocorticoid receptor (Homo sapiens, UniProt P04150).
T1 sequence (P04150 whole entry): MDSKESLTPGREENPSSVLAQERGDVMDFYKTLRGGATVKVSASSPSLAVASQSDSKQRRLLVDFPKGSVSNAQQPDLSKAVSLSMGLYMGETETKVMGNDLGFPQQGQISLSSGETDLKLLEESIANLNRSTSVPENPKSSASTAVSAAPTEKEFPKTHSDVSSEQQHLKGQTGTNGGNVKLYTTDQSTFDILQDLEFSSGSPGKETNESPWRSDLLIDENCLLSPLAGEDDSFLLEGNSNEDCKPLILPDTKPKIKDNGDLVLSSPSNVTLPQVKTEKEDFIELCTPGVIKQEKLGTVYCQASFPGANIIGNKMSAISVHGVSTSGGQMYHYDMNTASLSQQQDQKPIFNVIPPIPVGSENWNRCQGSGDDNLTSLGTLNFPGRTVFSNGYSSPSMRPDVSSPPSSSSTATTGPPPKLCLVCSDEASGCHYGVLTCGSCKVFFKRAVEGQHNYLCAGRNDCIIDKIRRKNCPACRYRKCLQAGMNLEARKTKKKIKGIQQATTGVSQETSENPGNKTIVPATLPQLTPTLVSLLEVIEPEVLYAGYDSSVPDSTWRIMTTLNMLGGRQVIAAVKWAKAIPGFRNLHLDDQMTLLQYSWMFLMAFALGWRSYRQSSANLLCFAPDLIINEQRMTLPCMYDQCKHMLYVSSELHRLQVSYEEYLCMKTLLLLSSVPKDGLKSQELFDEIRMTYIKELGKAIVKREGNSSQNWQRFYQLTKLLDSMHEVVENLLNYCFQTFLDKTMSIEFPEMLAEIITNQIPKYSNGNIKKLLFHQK
Nature of the experiment: Displacement of [3H]-dexamethasone from cytosolic fraction of human recombinant glucocorticoid receptor by scintillation counting analysis. (In a radioligand displacement assay an active substance lowers the binding of a labelled ligand.)

The target in experiment [2] is T2, Progesterone receptor (Homo sapiens, UniProt P06401).
T2 sequence (P06401 whole entry): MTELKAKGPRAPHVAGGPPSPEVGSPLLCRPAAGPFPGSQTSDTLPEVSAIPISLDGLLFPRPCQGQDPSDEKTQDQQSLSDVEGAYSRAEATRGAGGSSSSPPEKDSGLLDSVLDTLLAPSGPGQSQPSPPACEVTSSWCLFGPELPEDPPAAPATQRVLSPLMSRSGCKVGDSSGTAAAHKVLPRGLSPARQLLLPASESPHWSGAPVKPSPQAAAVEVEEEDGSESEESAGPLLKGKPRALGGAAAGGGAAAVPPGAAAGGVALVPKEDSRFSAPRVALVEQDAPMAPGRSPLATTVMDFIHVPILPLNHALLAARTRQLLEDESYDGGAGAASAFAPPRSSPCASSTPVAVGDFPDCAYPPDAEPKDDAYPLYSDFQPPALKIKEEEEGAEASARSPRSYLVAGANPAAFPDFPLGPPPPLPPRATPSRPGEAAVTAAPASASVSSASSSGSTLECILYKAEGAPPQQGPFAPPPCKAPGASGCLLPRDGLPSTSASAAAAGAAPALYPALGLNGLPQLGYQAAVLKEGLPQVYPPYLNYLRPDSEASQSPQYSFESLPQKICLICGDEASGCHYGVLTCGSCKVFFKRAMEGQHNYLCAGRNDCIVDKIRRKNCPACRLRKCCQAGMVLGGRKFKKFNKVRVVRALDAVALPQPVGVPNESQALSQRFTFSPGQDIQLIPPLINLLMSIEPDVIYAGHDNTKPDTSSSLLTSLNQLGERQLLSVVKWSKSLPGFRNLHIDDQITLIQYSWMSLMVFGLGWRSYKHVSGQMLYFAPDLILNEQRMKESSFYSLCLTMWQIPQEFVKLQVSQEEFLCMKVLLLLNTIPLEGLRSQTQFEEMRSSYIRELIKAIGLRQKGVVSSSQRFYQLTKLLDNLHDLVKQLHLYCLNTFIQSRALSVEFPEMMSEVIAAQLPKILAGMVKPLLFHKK
Nature of the experiment: Displacement of [3H]-progesterone from cytosolic fraction of human recombinant progesterone-B receptor by scintillation counting analysis.

The target in experiment [3] is T1, Glucocorticoid receptor. Put plainly: Antagonist activity at human glucocorticoid receptor transfected in CHOK1 cells assessed as inhibition of dexamethasone-induced receptor transcriptional activity after 6 hrs by luciferase reporter gene assay. It counts as cell-based, CHO-K1. (A reporter such as luciferase makes a cellular process visible.)
The target in experiment [4] is T3, Mineralocorticoid receptor (Homo sapiens, UniProt P08235).
T3 sequence (P08235 whole entry): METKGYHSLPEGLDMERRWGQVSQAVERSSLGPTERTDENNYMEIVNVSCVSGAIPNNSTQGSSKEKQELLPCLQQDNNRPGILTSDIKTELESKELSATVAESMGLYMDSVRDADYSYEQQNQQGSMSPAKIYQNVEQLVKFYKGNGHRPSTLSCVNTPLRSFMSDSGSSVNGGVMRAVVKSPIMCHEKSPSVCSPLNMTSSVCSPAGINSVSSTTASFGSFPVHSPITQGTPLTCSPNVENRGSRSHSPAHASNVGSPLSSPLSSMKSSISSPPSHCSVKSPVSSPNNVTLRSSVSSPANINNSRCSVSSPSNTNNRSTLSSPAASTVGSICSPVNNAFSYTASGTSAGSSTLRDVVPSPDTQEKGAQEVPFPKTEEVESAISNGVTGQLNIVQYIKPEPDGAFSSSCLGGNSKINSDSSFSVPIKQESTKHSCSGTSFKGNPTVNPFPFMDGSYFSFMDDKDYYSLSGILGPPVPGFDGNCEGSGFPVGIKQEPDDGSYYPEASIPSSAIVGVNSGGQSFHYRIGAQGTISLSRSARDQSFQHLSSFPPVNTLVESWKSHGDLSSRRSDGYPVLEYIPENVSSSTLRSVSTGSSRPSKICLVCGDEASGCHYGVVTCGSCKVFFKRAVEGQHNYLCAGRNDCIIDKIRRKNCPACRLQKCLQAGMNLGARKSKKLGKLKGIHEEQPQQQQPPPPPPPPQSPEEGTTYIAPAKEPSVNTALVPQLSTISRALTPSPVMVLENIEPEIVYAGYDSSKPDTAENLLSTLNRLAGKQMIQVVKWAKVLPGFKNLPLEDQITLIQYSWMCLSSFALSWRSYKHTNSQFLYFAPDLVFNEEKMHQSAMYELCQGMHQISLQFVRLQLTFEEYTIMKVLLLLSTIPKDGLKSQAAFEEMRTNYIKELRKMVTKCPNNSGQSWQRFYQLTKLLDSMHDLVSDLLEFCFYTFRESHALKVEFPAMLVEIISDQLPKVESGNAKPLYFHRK
Put plainly: Displacement of [3H]-aldosterone from cytosolic fraction of human recombinant mineralocorticoid receptor by scintillation counting analysis.

Experiment [5] relates to Rattus norvegicus. Nature of the experiment: Antidepressant-like activity in Wistar rat assessed as immobility time at 10 mg/kg, po administered at 1, 5, 23.5 hrs prior to testing measured for 5 mins by forced swimming test (reference value: 211.3 to 232.2 secs). It counts as functional.
The subject of experiment [6] is Rattus norvegicus. Put plainly: Antidepressant-like activity in Wistar rat assessed as immobility time at 30 mg/kg, po administered at 1, 5, 23.5 hrs prior to testing measured for 5 mins by forced swimming test (reference value: 211.3 to 232.2 secs). The experiment is classed as functional.
The subject of experiment [7] is Rattus norvegicus. Nature of the experiment: Antidepressant-like activity in Wistar rat assessed as decrease in immobility time at 10 mg/kg, po administered at 1, 5, 23.5 hrs prior to testing measured for 5 mins by forced swimming test relative to vehicle-treated control. It counts as functional. Further details: scale not given: the % may be the effect or the level left.

Experiment [8] has as its system Rattus norvegicus. Put plainly: Antidepressant-like activity in Wistar rat assessed as decrease in immobility time at 30 mg/kg, po administered at 1, 5, 23.5 hrs prior to testing measured for 5 mins by forced swimming test relative to vehicle-treated control. The experiment is classed as functional. Further details: scale not given: the % may be the effect or the level left.

Structures are written as SMILES. Some results are limits rather than exact numbers.

A word on the Ki: it is a dissociation constant, usually derived from enzyme kinetics or from competition with a known ligand. The IC50 is the concentration at which inhibition is half-maximal. Regarding `Cc1noc(C)c1-c1ccc2c(c1)C(C)(C)C(=O)C(C)(C)N2`, the results for the Ki in experiment [1], in experiment [2] and in experiment [4] were 16 nM, 22 nM and 337 nM, respectively. Further, the IC50 in experiment [3] worked out at 37 nM.

`Cc1noc(C)c1-c1cc2c(cc1Cl)NC(C)(C)C(=O)C2(C)C`: the values for the Ki in experiment [1], in experiment [2] and in experiment [4] were 151 nM, 403 nM and above 3000 nM, respectively. Besides, in experiment [3], the IC50 is below 30 nM.

In the case of `COc1cc2c(cc1-c1c(C)noc1C)C(C)(C)C(=O)C(C)(C)N2`, the Ki in experiment [1] was 146 nM.

As to `Cc1noc(C)c1-c1cc2c(c3c1CCCC3)NC(C)(C)C(=O)C2(C)C`, the Ki in experiment [1] amounted to 106 nM. Also, the half-maximal inhibitory concentration (IC50) in experiment [3] was 167 nM.

In the case of `Cc1noc(C)c1-c1cc2c(c3c1OCO3)NC(C)(C)C(=O)C2(C)C`, the Ki in experiment [2] was 2270 nM; in experiment [4], above 3000 nM. In experiment [3], the IC50 turned out to be 77 nM.

On to `Cc1cnn(C)c1-c1cc2c(c3c1CCC3)NC(C)(C)C(=O)C2(C)C`, for which the values for the Ki in experiment [1] and in experiment [2] were 28 nM and above 1250 nM, respectively. In addition, in experiment [3], the 50% inhibitory concentration (IC50) worked out at 128 nM.

Take `Cc1ncn(C)c1-c1cc2c(c3c1CCC3)NC(C)(C)C(=O)C2(C)C`: in experiment [1], the Ki amounted to 69 nM. Also, the IC50 in experiment [3] is 150 nM.

In the case of `Cc1cc(-c2cc3c(c4c2CCC4)NC(C)(C)C(=O)C3(C)C)n(C)n1`, the Ki in experiment [1] is above 384 nM.

For `Cc1cn(C)c(-c2cc3c(c4c2CCC4)NC(C)(C)C(=O)C3(C)C)n1`, the Ki in experiment [1] is above 384 nM.

Regarding `CC1(C)Nc2c(cc(-c3cccc4nccn34)c3c2CCC3)C(C)(C)C1=O`, the IC50 in experiment [3] stood at 21 nM.

On to `CC1(C)Nc2c(cc(-c3cccn4nccc34)c3c2CCC3)C(C)(C)C1=O`, for which the figures for the Ki in experiment [1] and in experiment [2] were 35 nM and 1190 nM, respectively. Moreover, the IC50 in experiment [3] is 84 nM.

Regarding `CC1(C)Nc2c(cc(-c3cncc4nccn34)c3c2CCC3)C(C)(C)C1=O`, the values for the Ki in experiment [1], in experiment [2] and in experiment [4] were 46 nM, above 1250 nM and above 3330 nM, respectively. Further, the IC50 in experiment [3] is 93 nM.

With `CC1(C)Nc2c(cc(-c3cccc4nncn34)c3c2CCC3)C(C)(C)C1=O`, the 50% inhibitory concentration (IC50) in experiment [3] is 91 nM.

In the case of `CC1(C)Nc2c(cc(-c3cccn4cnnc34)c3c2CCC3)C(C)(C)C1=O`, in experiment [1], the inhibition constant Ki was above 384 nM.

For the compound `CC1(C)Nc2c(cc(-c3ccnc4ccccc34)c3c2CCC3)C(C)(C)C1=O`, the Ki in experiment [1] was 151 nM.

In the case of `CC1(C)Nc2c(cc(-c3ccnc4ncccc34)c3c2CCC3)C(C)(C)C1=O`, the IC50 in experiment [3] amounted to 53 nM.

For the compound `CC#C[C@]1(O)CC[C@H]2[C@@H]3CCC4=CC(=O)CCC4=C3[C@@H](c3ccc(N(C)C)cc3)C[C@@]21C` [MIFEPRISTONE], the Time in experiment [5] is 187 s; in experiment [6], 169.3 s. Also, the Activity is reported as 88.5% in experiment [7] and 80.1% in experiment [8].
